Data as given in US20150231080A1, “PHARMACEUTICAL COMPOSITION COMPRISING AN ATYPICAL ANTIPSYCHOTIC AGENT AND METHOD FOR THE PREPARATION THEREOF” (PHARMATHEN S.A., priority 2012, published 2015).

Columns and labels:
[1] = blends, accelerated storage conditions
[2] = fumarate salt, crystalline powder; cited from earlier work

- compatibility with tartaric acid [1]: significant compatibility problems
SMILES: OCCOCCN1CCN(C2=Nc3ccccc3Sc3ccccc32)CC1 [Quetiapine, 11-[4-[2-(2-hydroxyethoxy)ethyl]-1-piperazinyl]dibenzo[b,f][1,4]thiazepine]
- solubility in water [2]: moderately soluble in water
